In US10059945B2, “Methods of controlling cell fate and consequences for disease” (THE GENERAL HOSPITAL CORPORATION, priority 2014, dated 2018):

System: reprogrammable MEFs
Test: alkaline phosphatase-positive (AP+) transgene-independent iPSC colony formation
Format: cell-based, mouse
Details: 4-factor reprogrammable cells, doxycycline
Protocol: Transfections of RepMEFs with siRNAs were performed in 12-well plates at the time of dox administration. Per 12-well plate, 2 ul of Lipofectamine™ 2000 was added to 75 ul of Optimem™ (Life Technologies™) and 1.5 ul of siRNA (esiRNA, Sigma™) was added to 75 ul of Optimem™; both mixtures were separately incubated at room temperature for 5 minutes, then combined and incubated for another 15 minutes before adding the solution to the reprogramming media (normal media lacking antibiotics). After overnight incubation, the transfection media was replaced with regular reprogramming media.

SMILES	generation of AP+ iPSC colonies, small molecules vs knockdown alone
Cc1c[nH]c(-c2cnc(NCCNc3ccc(C#N)cn3)nc2-c2ccc(Cl)cc2Cl)n1 [Gsk3 inhibitor, CHIR99021]	significantly enhanced
O=C1O[C@H]([C@@H](O)CO)C(O)=C1O [ascorbic acid, L-Ascorbic acid]	significantly enhanced
